According to US20240209028A1, “CNP COMPOUNDS” (priority 2022, published 2024):
Starred links: 1 amine or outer side, 2 acyl side, 3 side chain; linkers in the order of their positions; H or OH if unused. Positions of bridges follow the written chain, without caps; N, C: chain ends. Residues, ends and D or L forms follow the SMILES beside them. *: point of attachment. C18 diacid = O=C(O)CCCCCCCCCCCCCCCCC(=O)*; γGlu = O=C(O)[C@H](CCC(=O)[*:2])N[*:1]; AEEA = NCCOCCOCC(=O)O

These compounds were tested against T1, human natriuretic peptide receptor 2 (hNPR2) (Homo sapiens, UniProt P20594) (assay: In vitro hNPR2 activity assay (cGMP GloSensor reporter, HEK293)). Conditions: potency relative to CNP22 (0065).
T1 construct: expressed in transfected cells; host or cells: HEK293 (ATCC CRL-1573), clone 35, co-transfected with pGloSensor-42F
T1 sequence (P20594 23-1047): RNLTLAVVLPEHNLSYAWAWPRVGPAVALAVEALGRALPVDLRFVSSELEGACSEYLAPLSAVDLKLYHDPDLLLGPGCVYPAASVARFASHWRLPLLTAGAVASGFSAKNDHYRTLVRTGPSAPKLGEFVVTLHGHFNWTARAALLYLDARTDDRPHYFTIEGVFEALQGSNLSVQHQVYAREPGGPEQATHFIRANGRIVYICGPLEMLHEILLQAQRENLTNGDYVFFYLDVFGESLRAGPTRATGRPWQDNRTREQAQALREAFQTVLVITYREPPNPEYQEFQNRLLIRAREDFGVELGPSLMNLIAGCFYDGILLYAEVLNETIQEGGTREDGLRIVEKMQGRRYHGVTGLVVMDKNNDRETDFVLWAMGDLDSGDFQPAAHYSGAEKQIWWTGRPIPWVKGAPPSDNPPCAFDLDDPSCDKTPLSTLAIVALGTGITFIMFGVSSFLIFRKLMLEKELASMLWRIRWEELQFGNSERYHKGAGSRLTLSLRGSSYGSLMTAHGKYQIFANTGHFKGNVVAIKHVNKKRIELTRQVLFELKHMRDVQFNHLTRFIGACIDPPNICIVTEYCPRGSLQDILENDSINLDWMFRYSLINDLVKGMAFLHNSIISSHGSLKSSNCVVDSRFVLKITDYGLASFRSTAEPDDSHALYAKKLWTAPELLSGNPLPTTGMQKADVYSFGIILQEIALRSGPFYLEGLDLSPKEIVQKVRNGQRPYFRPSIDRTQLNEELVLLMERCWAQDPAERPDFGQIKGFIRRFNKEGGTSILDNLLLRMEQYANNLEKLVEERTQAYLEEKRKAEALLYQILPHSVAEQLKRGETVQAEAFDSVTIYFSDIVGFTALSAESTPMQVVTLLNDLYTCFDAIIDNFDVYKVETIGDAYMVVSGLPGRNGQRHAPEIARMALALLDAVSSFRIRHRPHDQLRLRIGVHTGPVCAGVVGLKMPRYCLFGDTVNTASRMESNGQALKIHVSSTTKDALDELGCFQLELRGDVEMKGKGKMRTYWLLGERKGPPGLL
Assay type: cell-based
Summary of the method: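 Potency is the EC50 from a four-parameter logistic fit, also expressed relative to the in-plate CNP22 control (×100), with at least two replicates. Compounds (ten concentrations, […], HSA-free diluent with 1% OVA, 0.01% Tween20) were incubated 30 min at 37 °C on HEK293 cells co-expressing hNPR2 and a GloSensor cGMP luciferase. Luminescence detected with Bright-Glo.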

First: CC[C@H](C)[C@@H]1NC(=O)[C@H](CCCNC(=N)N)NC(=O)[C@H](CC(=O)O)NC(=O)[C@H](CC(C)C)NC(=O)[C@@H]2CCCN2C(=O)[C@H](CC(C)C)NC(=O)CNC(=O)[C@H](Cc2ccccc2)NC(=O)[C@@H](NC(=O)CNC(=O)[C@H](CO)NC(=O)[C@H](CO)NC(=O)[C@@H](NC(=O)CNC(=O)[C@@H](NC(=O)[C@H](CCCCN)NC(=O)[C@H](CCC(N)=O)NC(=O)[C@H](C)NC(=O)CNC(=O)[C@H](Cc2c[nH]cn2)NC(=O)[C@H](Cc2ccc(O)cc2)NC(=O)[C@H](CCCCN)NC(=O)[C@H](CCCNC(=N)N)NC(=O)[C@H](C)NC(=O)COCCOCCNC(=O)COCCOCCNC(=O)CC[C@H](NC(=O)CC[C@H](NC(=O)CC[C@H](NC(=O)CCCCCCCCCCCCCCCCC(=O)O)C(=O)O)C(=O)O)C(=O)O)[C@@H](C)O)C(C)C)CSSC[C@@H](C(=O)O)NC(=O)CNC(=O)[C@H](CC(C)C)NC(=O)CNC(=O)[C@H](CO)NC(=O)[C@H](CC(C)C)NC(=O)[C@H](CO)NC(=O)CNC1=O [compound 1450] ({C18 diacid-γGlu-γGlu-γGlu-AEEA-AEEA}-ARKYHGAQKTGVSSGCFGLPLDRIGSLSGLGC-OH; disulfide 16-32)
Second: CC[C@H](C)[C@@H]1NC(=O)[C@H](CCCNC(=N)N)NC(=O)[C@H](CCC(=O)O)NC(=O)[C@H](CC(C)C)NC(=O)[C@@H]2CCCN2C(=O)[C@H](CC(C)C)NC(=O)CNC(=O)[C@H](Cc2ccccc2)NC(=O)[C@@H](NC(=O)CNC(=O)[C@H](CO)NC(=O)[C@H](CO)NC(=O)[C@@H](NC(=O)CNC(=O)[C@H](CCCCN)NC(=O)[C@H](CCCCN)NC(=O)[C@H](CCC(N)=O)NC(=O)[C@H](C)NC(=O)CNC(=O)[C@H](Cc2c[nH]cn2)NC(=O)[C@H](Cc2ccc(O)cc2)NC(=O)[C@H](CCCCN)NC(=O)[C@H](CCCNC(=N)N)NC(=O)[C@H](C)NC(=O)COCCOCCNC(=O)COCCOCCNC(=O)CC[C@H](NC(=O)CC[C@H](NC(=O)CC[C@H](NC(=O)CCCCCCCCCCCCCCCCC(=O)O)C(=O)O)C(=O)O)C(=O)O)C(C)C)CSSC[C@@H](C(=O)O)NC(=O)CNC(=O)[C@H](CC(C)C)NC(=O)CNC(=O)[C@H](CO)NC(=O)[C@H](CC(C)C)NC(=O)[C@H](CO)NC(=O)CNC1=O [compound 1451] ({C18 diacid-γGlu-γGlu-γGlu-AEEA-AEEA}-ARKYHGAQKKGVSSGCFGLPLERIGSLSGLGC-OH; disulfide 16-32)
The “hNPR2 0% HSA. [EC50% rel CNP]” value of the first is higher: 84.2% for the first, 47.5% for the second.

Compared with `CC[C@H](C)[C@@H]1NC(=O)[C@H](CCCNC(=N)N)NC(=O)[C@H](CC(=O)O)NC(=O)[C@H](CC(C)C)NC(=O)[C@@H]2CCCN2C(=O)[C@H](CC(C)C)NC(=O)CNC(=O)[C@H](Cc2ccccc2)NC(=O)[C@@H](NC(=O)CNC(=O)[C@H](CCC(N)=O)NC(=O)[C@H](CO)NC(=O)[C@H](CC(C)C)NC(=O)CNC(=O)[C@H](CCCCN)NC(=O)[C@H](CCCCN)NC(=O)[C@H](CCC(N)=O)NC(=O)[C@H](C)NC(=O)CNC(=O)[C@H](CCCCN)NC(=O)[C@H](Cc2ccc(O)cc2)NC(=O)[C@H](CCCCN)NC(=O)[C@H](CCCNC(=N)N)NC(=O)[C@H](C)NC(=O)COCCOCCNC(=O)COCCOCCNC(=O)COCCOCCNC(=O)CC[C@H](NC(=O)CC[C@H](NC(=O)CC[C@H](NC(=O)CC[C@H](NC(=O)CC[C@H](NC(=O)CCCCCCCCCCCCCCCCC(=O)O)C(=O)O)C(=O)O)C(=O)O)C(=O)O)C(=O)O)CSSC[C@@H](C(=O)O)NC(=O)CNC(=O)[C@H](CC(C)C)NC(=O)CNC(=O)[C@H](CO)NC(=O)[C@H](CC(C)C)NC(=O)[C@H](CO)NC(=O)CNC1=O` [compound 1452] ({C18 diacid-γGlu-γGlu-γGlu-γGlu-γGlu-AEEA-AEEA-AEEA}-ARKYKGAQKKGLSQGCFGLPLDRIGSLSGLGC-OH; disulfide 16-32), `CC[C@H](C)[C@@H]1NC(=O)[C@H](CCCNC(=N)N)NC(=O)[C@H](CC(=O)O)NC(=O)[C@H](CC(C)C)NC(=O)[C@@H]2CCCN2C(=O)[C@H](CC(C)C)NC(=O)CNC(=O)[C@H](Cc2ccccc2)NC(=O)[C@@H](NC(=O)CNC(=O)[C@H](CCC(N)=O)NC(=O)[C@H](CO)NC(=O)[C@H](CC(C)C)NC(=O)CNC(=O)[C@H](CCCCN)NC(=O)[C@H](CCCCN)NC(=O)[C@H](CCC(N)=O)NC(=O)[C@H](C)NC(=O)CNC(=O)[C@H](CCCCN)NC(=O)[C@H](Cc2ccc(O)cc2)NC(=O)[C@H](CCCCN)NC(=O)[C@H](CCCNC(=N)N)NC(=O)[C@H](C)NC(=O)COCCOCCNC(=O)COCCOCCNC(=O)COCCOCCNC(=O)CC[C@H](NC(=O)CC[C@H](NC(=O)CC[C@H](NC(=O)CC[C@H](NC(=O)CCCCCCCCCCCCCCCCC(=O)O)C(=O)O)C(=O)O)C(=O)O)C(=O)O)CSSC[C@@H](C(=O)O)NC(=O)CNC(=O)[C@H](CC(C)C)NC(=O)CNC(=O)[C@H](CO)NC(=O)[C@H](CC(C)C)NC(=O)[C@H](CO)NC(=O)CNC1=O` [compound 1455] ({C18 diacid-γGlu-γGlu-γGlu-γGlu-AEEA-AEEA-AEEA}-ARKYKGAQKKGLSQGCFGLPLDRIGSLSGLGC-OH; disulfide 16-32) is lower in “hNPR2 0% HSA. [EC50% rel CNP]” value: 57.6% for the first, 43.4% for the second.

First: CC[C@H](C)[C@@H]1NC(=O)[C@H](CCCNC(=N)N)NC(=O)[C@H](CC(=O)O)NC(=O)[C@H](CC(C)C)NC(=O)[C@@H]2CCCN2C(=O)[C@H](CC(C)C)NC(=O)CNC(=O)[C@H](Cc2ccccc2)NC(=O)[C@@H](NC(=O)CNC(=O)[C@H](CCC(N)=O)NC(=O)[C@H](CO)NC(=O)[C@H](CC(C)C)NC(=O)CNC(=O)[C@H](CCCCN)NC(=O)[C@H](CCCCN)NC(=O)[C@H](CCC(N)=O)NC(=O)[C@H](C)NC(=O)CNC(=O)[C@H](CCCCN)NC(=O)[C@H](Cc2ccc(O)cc2)NC(=O)[C@H](CCCCN)NC(=O)[C@H](CCCNC(=N)N)NC(=O)[C@H](C)NC(=O)COCCOCCNC(=O)COCCOCCNC(=O)COCCOCCNC(=O)COCCOCCNC(=O)CC[C@H](NC(=O)CC[C@H](NC(=O)CC[C@H](NC(=O)CC[C@H](NC(=O)CCCCCCCCCCCCCCCCC(=O)O)C(=O)O)C(=O)O)C(=O)O)C(=O)O)CSSC[C@@H](C(=O)O)NC(=O)CNC(=O)[C@H](CC(C)C)NC(=O)CNC(=O)[C@H](CO)NC(=O)[C@H](CC(C)C)NC(=O)[C@H](CO)NC(=O)CNC1=O [compound 1454] ({C18 diacid-γGlu-γGlu-γGlu-γGlu-AEEA-AEEA-AEEA-AEEA}-ARKYKGAQKKGLSQGCFGLPLDRIGSLSGLGC-OH; disulfide 16-32; C-terminus assumed)
Second: CC[C@H](C)[C@@H]1NC(=O)[C@H](CCCNC(=N)N)NC(=O)[C@H](CC(=O)O)NC(=O)[C@H](CC(C)C)NC(=O)[C@@H]2CCCN2C(=O)[C@H](CC(C)C)NC(=O)CNC(=O)[C@H](Cc2ccccc2)NC(=O)[C@@H](NC(=O)CNC(=O)[C@H](CCC(N)=O)NC(=O)[C@H](CO)NC(=O)[C@H](CC(C)C)NC(=O)CNC(=O)[C@H](CCCCN)NC(=O)[C@H](CCCCN)NC(=O)[C@H](CCC(N)=O)NC(=O)[C@H](C)NC(=O)CNC(=O)[C@H](CCCCN)NC(=O)[C@H](Cc2ccc(O)cc2)NC(=O)[C@H](CCCCN)NC(=O)[C@H](CCCNC(=N)N)NC(=O)[C@H](C)NC(=O)COCCOCCNC(=O)COCCOCCNC(=O)CC[C@H](NC(=O)CC[C@H](NC(=O)CC[C@H](NC(=O)CC[C@H](NC(=O)CCCCCCCCCCCCCCCCC(=O)O)C(=O)O)C(=O)O)C(=O)O)C(=O)O)CSSC[C@@H](C(=O)O)NC(=O)CNC(=O)[C@H](CC(C)C)NC(=O)CNC(=O)[C@H](CO)NC(=O)[C@H](CC(C)C)NC(=O)[C@H](CO)NC(=O)CNC1=O [compound 1456] ({C18 diacid-γGlu-γGlu-γGlu-γGlu-AEEA-AEEA}-ARKYKGAQKKGLSQGCFGLPLDRIGSLSGLGC-OH; disulfide 16-32)
The “hNPR2 0% HSA. [EC50% rel CNP]” value of the first is higher: 63.6% for the first, 50.4% for the second.
